# Reference: ChEMBL document CHEMBL1142643, “Haligramides A and B, two new cytotoxic hexapeptides from the marine sponge Haliclona nigra” (J Nat Prod, 2000)
# Starred links: 1 amine or outer side, 2 acyl side, 3 side chain; linkers in the order of their positions; H or OH if unused. Non-standard residues stand in square brackets, D forms with d. Residues, ends and D or L forms follow the SMILES beside them. X1 = O=C(c1csc([C@H](Cc2ccccc2)N[*:1])n1)[*:2]; Met(O) = CS(=O)CC[C@H](N)C(=O)O
# Key:
# Format in all cases: functional, cell-based
# HCT-15 = experiment: Cytotoxicity against human HCT15 cells after 2 days; conditions: HCT-15, 48 h
# A549 = experiment: Cytotoxicity against human A549 cells after 2 days; conditions: A549, 48 h
# SNB-19 = experiment: Cytotoxicity against human SNB19 cells after 2 days; conditions: SNB-19, 48 h
# SF-539 = experiment: Cytotoxicity against human SF539 cells after 2 days; conditions: SF-539, 48 h
SMILES,IC50 (HCT-15) [mg/L],IC50 (A549) [mg/L],IC50 (SNB-19) [mg/L],IC50 (SF-539) [mg/L]
CSCC[C@@H]1NC(=O)[C@@H]2CCCN2C(=O)[C@@H]2CCCN2C(=O)[C@H](CCSC)NC(=O)c2csc(n2)[C@H](Cc2ccccc2)NC(=O)[C@@H]2CCCN2C1=O [HALIGRAMIDE A] (cyclo(MPPMP[X1])),15.6,5.17,9.08,9
CSCC[C@@H]1NC(=O)[C@@H]2CCCN2C(=O)[C@@H]2CCCN2C(=O)[C@H](CC[S+](C)[O-])NC(=O)c2csc(n2)[C@H](Cc2ccccc2)NC(=O)[C@@H]2CCCN2C1=O (stereo partly drawn) [HALIGRAMIDE B] (cyclo(MP[X1][Met(O)]PP)),8.82,3.89,6.56,5.01
